SMILES strings stand for the structures.

Assay [1] concerns AMARE. Kind of assay: Post-emergence herbicidal action against AMARE. The class given is in vivo, Amaranthus retroflexus. The settings on record: 20 g/ha, visual assessment about 3 weeks after treatment, 100% = plants have died, 0% = like control plants; for pest or weed control at 20 g/ha: Amaranthus retroflexus, 504 h. In short, it runs like this:
(§1)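 Post-emergence greenhouse test; one-leaf stage, 2–3 wk post-sowing, sandy loam. Foliar spray of WP/EC in water, 600–800 l/ha, +0.2% wetting agent. Visual % action at ~3 wk vs untreated (100% = plants dead).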

Assay [2] concerns ALOMY. Description: Post-emergence herbicidal action against ALOMY. The assay is classed as in vivo, Alopecurus myosuroides. The settings on record: Alopecurus myosuroides, 504 h, visual assessment about 3 weeks after treatment vs untreated controls; for pest or weed control at 5 g/ha: dosage 5 g/ha; for pest or weed control at 20 g/ha: dosage 20 g/ha. The method in brief: as §1

Assay [3] has as its system VIOTR. Kind of assay: Pre-emergence herbicidal action against VIOTR. The assay is classed as in vivo, Viola tricolor. As to conditions: for pest or weed control at 80 g/ha: Viola tricolor, 504 h. The method in brief:
(§2)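 Herbicidal effect was assessed 3 weeks after treatment by visual comparison with untreated controls, 100% denoting dead plants. Aqueous WP or EC preparations had been applied at 600 to 800 l/ha with 0.2% wetting agent to the soil covering freshly sown seeds.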

Assay [4] has as its system ABUTH. Kind of assay: Pre-emergence herbicidal action against ABUTH. The assay is classed as in vivo, Abutilon theophrasti. The method in brief:
as §2

The test system of assay [5] is ALOMY. Description: Pre-emergence herbicidal action against ALOMY. The class given is in vivo, Alopecurus myosuroides. As to conditions: pre-emergence; for pest or weed control at 80 g/ha / pest or weed control at 20 g/ha: Alopecurus myosuroides, 504 h; for pest or weed control at 20 g/ha: scored visually after 3 weeks, 100% = plants have died, 0% = like control plants. The method in brief:
as §2

Assay [6] concerns POLCO. Description: Pre-emergence herbicidal action against POLCO. The class given is in vivo, Polygonum convolvulus. As to conditions: dosage 80 g/ha; for pest or weed control at 80 g/ha: Fallopia convolvulus, 504 h. In short, it runs like this:
as §2

The test system of assay [7] is AMARE. Description: Pre-emergence herbicidal action against AMARE. The class given is in vivo, Amaranthus retroflexus. The settings on record: for pest or weed control at 20 g/ha / pest or weed control at 80 g/ha: Amaranthus retroflexus, 504 h. In short, it runs like this:
as §2

For assay [8], the system named is VIOTR. Description: Post-emergence herbicidal action against VIOTR. The settings on record: for pest or weed control at 20 g/ha: Viola tricolor, 504 h. The class given is in vivo, Viola tricolor. The method in brief:
as §1

The subject of assay [9] is ECHCG. Kind of assay: Pre-emergence herbicidal action against ECHCG. The settings on record: 80 g/ha; for pest or weed control at 80 g/ha: Echinochloa crus-galli, 504 h. The class given is in vivo, Echinochloa crus-galli. In short, it runs like this:
as §2

For assay [10], the system named is ECHCG. Description: Post-emergence herbicidal action against ECHCG. The class given is in vivo, Echinochloa crus-galli. In short, it runs like this:
as §1

The subject of assay [11] is VERPE. Description: Pre-emergence herbicidal action against VERPE. The class given is in vivo, Veronica persica. As to conditions: dosage 80 g/ha; for pest or weed control at 80 g/ha: Veronica persica, 504 h. The method in brief:
as §2

Assay [12] deals with PHBPU. Kind of assay: Post-emergence herbicidal action against PHBPU. The settings on record: Ipomoea purpurea, 504 h, dosage 20 g/ha. The class given is in vivo, Pharbitis purpurea. In short, it runs like this:
as §1

Assay [13] deals with MATIN. Kind of assay: Pre-emergence herbicidal action against MATIN. As to conditions: for pest or weed control at 20 g/ha / pest or weed control at 80 g/ha: Tripleurospermum inodorum, 504 h. The assay is classed as in vivo, Matricaria inodora. The method in brief:
as §2

Assay [14] relates to PHBPU. Kind of assay: Pre-emergence herbicidal action against PHBPU. The assay is classed as in vivo, Pharbitis purpurea. The settings on record: dosage 80 g/ha; for pest or weed control at 80 g/ha: Ipomoea purpurea, 504 h. In short, it runs like this:
as §2

Assay [15] has as its system ABUTH. Kind of assay: Post-emergence herbicidal action against ABUTH. The class given is in vivo, Abutilon theophrasti. The settings on record: visual assessment about 3 weeks after treatment vs untreated controls; for pest or weed control at 5 g/ha / pest or weed control at 20 g/ha: Abutilon theophrasti, 504 h. In short, it runs like this:
as §1

Assay [16] deals with DIGSA. Kind of assay: Post-emergence herbicidal action against DIGSA. The class given is in vivo, Digitaria sanguinalis. In short, it runs like this:
as §1

In assay [17] the test system is SETVI. Kind of assay: Pre-emergence herbicidal action against SETVI. The class given is in vivo, Setaria viridis. As to conditions: dosage 80 g/ha; for pest or weed control at 80 g/ha: Setaria viridis, 504 h. In short, it runs like this:
as §2

Assay [18] concerns SETVI. Description: Post-emergence herbicidal action against SETVI. The class given is in vivo, Setaria viridis. The settings on record: Setaria viridis, 504 h; for pest or weed control at 5 g/ha: dosage 5 g/ha; for pest or weed control at 20 g/ha: dosage 20 g/ha. In short, it runs like this:
as §1

In assay [19] the test system is MATIN. Kind of assay: Post-emergence herbicidal action against MATIN. The assay is classed as in vivo, Matricaria inodora. The settings on record: dosage 20 g/ha. The method in brief: as §1
The subject of assay [20] is DIGSA. Description: Pre-emergence herbicidal action against DIGSA. The assay is classed as in vivo, Digitaria sanguinalis. The method in brief:
as §2

Assay [21] has as its system AVEFA. Kind of assay: Pre-emergence herbicidal action against AVEFA. The assay is classed as in vivo, Avena fatua. The settings on record: 80 g/ha, pre-emergence; for pest or weed control at 80 g/ha: Avena fatua, 504 h. The method in brief:
as §2

Where [22] appears, read: Abutilon theophrasti, 504 h, 80 g/ha, scored visually after 3 weeks vs untreated controls (100% = plants have died, 0% = like control plants).
[23] abbreviates: 80 g/ha, scored visually after 3 weeks vs untreated controls (100% = plants have died, 0% = like control plants).
Setting [24] is: 20 g/ha, scored visually after 3 weeks vs untreated controls, 100% = plants have died, 0% = like control plants.
The mark [25] stands for this setting: 80 g/ha, scored visually after 3 weeks vs untreated controls, 100% = plants have died, 0% = like control plants.
Setting [26] is: Echinochloa crus-galli, 504 h, dosage 20 g/ha.

On to `CCCNC(=O)c1c(Br)ccc(C(=O)Nc2nnnn2C)c1Cl` [Example 1-184], for which the pest or weed control at 20 g/ha in assay [1] turned out to be 100%; in assay [2], 80%; in assay [5], 90%; in assay [7] (setting [24]), 100%; in [8] (20 g/ha), 90%; in assay [10] (setting [26]), 100%. For the same compound, the pest or weed control at 20 g/ha in assay [12], in assay [13] (dosage 20 g/ha) and in assay [15] (dosage 20 g/ha) was 80% in each case. The pest or weed control at 5 g/ha in [2] and in assay [15] (dosage 5 g/ha) was 80% each time. Moreover, the pest or weed control at 80 g/ha in assay [3] (dosage 80 g/ha) turned out to be 90%; in assay [4] (setting [22]), 100%; in assay [5] (setting [23]), 100%; in [6], 80%; in [7] (setting [25]) it was 100%; in assay [9], 100%. The results for the pest or weed control at 80 g/ha in assay [11], in [13] (dosage 80 g/ha) and in assay [14] were 90%, 100% and 80%, respectively.
With `Cn1nnnc1NC(=O)c1ccc(C(F)F)c(C(=O)NCC(F)(F)F)c1Br` [Example 1-229], the pest or weed control at 20 g/ha in [1] came to 90%; in assay [2] it was 80%; in assay [4] (Abutilon theophrasti, 504 h, dosage 20 g/ha, scored visually after 3 weeks vs untreated controls, 100% = plants have died, 0% = like control plants, read-out: Pre-emergence action against ABUTH (herbicidal activity in percent)) it was 90%; in assay [16] (Digitaria sanguinalis, 504 h, 20 g/ha) it was 90%; in assay [7] (setting [24]) it was 100%; in assay [10] (setting [26]), 90%. The pest or weed control at 20 g/ha in assay [18] was 90%; in assay [12], 80%; in assay [19] (Tripleurospermum inodorum, 504 h) it was 80%; in assay [20] (Digitaria sanguinalis, 504 h, dosage 20 g/ha) it was 100%; in assay [13] (dosage 20 g/ha), 100%. The pest or weed control at 80 g/ha turned out to be 100% in assay [3] (dosage 80 g/ha); 100% in assay [4] (setting [22]); 90% in assay [5] (setting [23]); 80% in assay [6]; 100% in assay [7] (setting [25]); 80% in assay [9]. In addition, the pest or weed control at 80 g/ha in [11] was found to be 100%; in assay [17], 100%; in assay [20] (Digitaria sanguinalis, 504 h, dosage 80 g/ha), 100%; in assay [13] (dosage 80 g/ha), 100%; in assay [14] it was 90%; in assay [21] it was 80%. Also, the pest or weed control at 5 g/ha in assay [16] (Digitaria sanguinalis, 504 h, 5 g/ha) was 90%; in assay [10] (Echinochloa crus-galli, 504 h, dosage 5 g/ha), 90%; in assay [18], 80%.
With `CCn1nnnc1NC(=O)c1ccc(C(F)F)c(C(=O)NC)c1Br` [Example 2-225], the “Post-emergence action at 20 g/ha against AMARE in %” value in [1] was determined as 100%. Also, the “Pre-emergence action against VIOTR in %” value in assay [3] (dosage 20 g/ha) was determined as 80%; in [3] (dosage 80 g/ha), 100%. For the same compound, the “Pre-emergence action against ABUTH (herbicidal activity)” value in assay [4] (setting [23]) is 100%. In addition, the “Pre-emergence action against ABUTH (herbicidal activity in percent)” value in assay [4] (dosage 20 g/ha, scored visually after 3 weeks vs untreated controls, 100% = plants have died, 0% = like control plants) was found to be 100%. In addition, the “Pre-emergence action against ALOMY (herbicidal activity)” value in assay [5] (setting [23]) is listed as 100%. Moreover, in assay [6], the “Pre-emergence action against POLCO in %” value is given as 90%. In addition, in assay [16] (20 g/ha), the “Post-emergence action against DIGSA” value was determined as 100%. The “Pre-emergence action against AMARE in %” value in [7] (setting [24]) and in assay [7] (setting [23]) was 100% in each case. The “Post-emergence action against VIOTR in %” value in assay [8] (5 g/ha) and in [8] (20 g/ha) was 100% throughout. For the same compound, the “Pre-emergence action against ECHCG in %” value in [9] is given as 90%. For the same compound, the “Post-emergence action against ECHCG in %” value in [10] (dosage 20 g/ha) worked out at 100%. Further, the “Pre-emergence action against VERPE in %” value in [11] came out at 100%. In addition, the “Pre-emergence action against SETVI in %” value in [17] was determined as 100%. In addition, in [19], the “Post-emergence action against MATIN in %” value was 80%. The “Pre-emergence action against DIGSA in %” value in assay [20] (dosage 20 g/ha) and in assay [20] (dosage 80 g/ha) was 100% each time. Further, the figures for the “Pre-emergence action against MATIN in %” value in assay [13] (dosage 20 g/ha) and in assay [13] (dosage 80 g/ha) were 80% and 100%, respectively. Moreover, the “Pre-emergence action against PHBPU in %” value in [14] is given as 90%. Besides, the “Pre-emergence action against AVEFA in %” value in assay [21] is reported as 80%. Also, the “Post-emergence action against ABUTH in %” value in [15] (dosage 5 g/ha) and in [15] (dosage 20 g/ha) was 100% in each case.
Take `CCNC(=O)c1c(Cl)ccc(C(=O)Nc2nnnn2CC)c1Br` [Example 2-348]: the pest or weed control at 20 g/ha in assay [1] is 100%; in assay [2], 90%; in assay [5] it was 90%; in assay [7] (setting [24]), 100%; in assay [8] (20 g/ha), 80%; in assay [10] (setting [26]), 80%. The pest or weed control at 20 g/ha turned out to be 100% in assay [18], 80% in [12], 90% in [13] (dosage 20 g/ha) and 90% in assay [15] (dosage 20 g/ha). In addition, the pest or weed control at 5 g/ha in assay [2] came to 80%; in assay [18] it was 80%; in assay [15] (dosage 5 g/ha), 90%. For the same compound, the pest or weed control at 80 g/ha in assay [3] (dosage 80 g/ha) is 100%; in assay [4] (setting [22]), 100%; in [5] (setting [23]), 100%; in [6], 90%; in [7] (setting [25]) it was 100%; in assay [9], 100%. For the same compound, the pest or weed control at 80 g/ha worked out at 80% in assay [11]; 100% in assay [17]; 90% in assay [13] (dosage 80 g/ha); 80% in assay [14]; 100% in assay [21].
